Assay results published in PubChem BioAssay (NCI).
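Cultured in 96-well plates, cells were exposed to test compound for 48 hours across five concentrations. Abbreviation: GI50, concentration required for 50% inhibition of growth. TGI denotes the concentration required for complete inhibition of growth.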

Tests used:
Experiment in all cases: NCI anticancer screen, dose series, 48 h
[1] = system: M14 melanoma
[2] = system: MDA-MB-231 breast
[3] = system: OVCAR-4 ovarian
[4] = system: HL-60(TB) leukemia
[5] = system: CCRF-CEM leukemia
[6] = system: SK-MEL-28 melanoma
[7] = system: A498 renal
[8] = system: MDA-MB-435
[9] = system: A549 NSCLC
[10] = system: HOP-62 NSCLC
[11] = system: K-562 leukemia
[12] = system: SNB-19 CNS
[13] = system: SNB-75 CNS
[14] = system: OVCAR-3 ovarian
[15] = system: SR leukemia
[16] = system: SN12C renal
[17] = system: NCI-H522 lung
[18] = system: TK-10 renal
[19] = system: BT-549 breast
[20] = system: NCI-H460 lung
[21] = system: CAKI-1 renal
[22] = system: SF-539 CNS
[23] = system: SF-295 CNS
[24] = system: RPMI-8226 leukemia
[25] = system: PC-3 prostate
[26] = system: NCI-H23 lung
[27] = system: DU-145 prostate
[28] = system: IGROV1 ovarian
[29] = system: ACHN renal
[30] = system: 786-0 renal
[31] = system: EKVX NSCLC
[32] = system: MOLT-4 leukemia
[33] = system: OVCAR-8 ovarian
[34] = system: UACC-257 melanoma
[35] = system: HS 578T breast
[36] = system: HCT-116 colon
[37] = system: T-47D breast
[38] = system: KM12 colon
[39] = system: MCF7 breast
[40] = system: U251 CNS
[41] = system: SF-268 CNS
[42] = system: OVCAR-5 ovarian
[43] = system: COLO 205 colon
[44] = system: UACC-62 melanoma
[45] = system: HT29 colon
[46] = system: HCC-2998 colon
[47] = system: MALME-3M melanoma
[48] = system: UO-31 renal
[49] = system: RXF 393 renal
[50] = system: NCI/ADR-RES ovarian
[51] = system: SK-MEL-5 melanoma
[52] = system: SW-620 colon
[53] = system: LOX IMVI melanoma
[54] = system: HOP-92 NSCLC

Clc1cccc(/C=N/Nc2nc(N/N=C/c3cccc(Cl)c3)nc(N3CCOCC3)n2)c1
GI50 [1]: 3.08 µM
TGI [1]: > 100 µM
GI50 [2]: 9.16 µM
TGI [2]: > 100 µM
GI50 [3]: 5.82 µM
TGI [3]: > 100 µM
GI50 [4]: 0.505 µM
TGI [4]: 3.08 µM
GI50 [5]: 1.34 µM
TGI [5]: 6.6 µM
GI50 [6]: 2.86 µM
TGI [6]: 7.74 µM
GI50 [7]: 1.67 µM
TGI [7]: 5.65 µM
GI50 [8]: 4.24 µM
TGI [8]: > 100 µM
GI50 [9]: 3.57 µM
TGI [9]: > 100 µM
GI50 [10]: 4.67 µM
TGI [10]: > 100 µM
GI50 [11]: 0.699 µM
TGI [11]: 7.65 µM
GI50 [12]: 37 µM
TGI [12]: > 100 µM
GI50 [13]: 3.33 µM
TGI [13]: > 100 µM
GI50 [14]: 2.87 µM
TGI [14]: 59.9 µM
GI50 [15]: 0.329 µM
TGI [15]: 2.58 µM
GI50 [16]: 4.99 µM
TGI [16]: > 100 µM
GI50 [17]: 3.21 µM
TGI [17]: > 100 µM
GI50 [18]: 5.89 µM
TGI [18]: > 100 µM
GI50 [19]: 3.22 µM
TGI [19]: > 100 µM
GI50 [20]: 3.47 µM
TGI [20]: > 100 µM
GI50 [21]: 2.77 µM
TGI [21]: > 100 µM
GI50 [22]: 5.39 µM
TGI [22]: > 100 µM
GI50 [23]: 4.13 µM
TGI [23]: > 100 µM
GI50 [24]: 1.9 µM
TGI [24]: 6.79 µM
GI50 [25]: 2.91 µM
TGI [25]: > 100 µM
GI50 [26]: 4.05 µM
TGI [26]: > 100 µM
GI50 [27]: 2.62 µM
TGI [27]: > 100 µM
GI50 [28]: 4.61 µM
TGI [28]: > 100 µM
GI50 [29]: 2.11 µM
TGI [29]: > 100 µM
GI50 [30]: 1.07 µM
TGI [30]: 4.12 µM
GI50 [31]: 4.23 µM
TGI [31]: > 100 µM
GI50 [32]: 1.49 µM
TGI [32]: 4.4 µM
GI50 [33]: 4.58 µM
TGI [33]: > 100 µM
GI50 [34]: 2.47 µM
TGI [34]: 6.52 µM
GI50 [35]: 3.76 µM
TGI [35]: > 100 µM
GI50 [36]: 1.27 µM
TGI [36]: > 100 µM
GI50 [37]: 3.54 µM
TGI [37]: > 100 µM
GI50 [38]: 3.61 µM
TGI [38]: > 100 µM
GI50 [39]: 2.47 µM
TGI [39]: > 100 µM
GI50 [40]: 3.49 µM
TGI [40]: > 100 µM
GI50 [41]: 5.1 µM
TGI [41]: > 100 µM
GI50 [42]: > 100 µM
TGI [42]: > 100 µM
GI50 [43]: 1.23 µM
TGI [43]: > 100 µM
GI50 [44]: 4.54 µM
TGI [44]: > 100 µM
GI50 [45]: 1.34 µM
TGI [45]: > 100 µM
GI50 [46]: 2.73 µM
TGI [46]: > 100 µM
GI50 [47]: 2.86 µM
TGI [47]: 5.57 µM
GI50 [48]: 1.61 µM
TGI [48]: > 100 µM
GI50 [49]: 1 µM
TGI [49]: 3.51 µM
GI50 [50]: 3.39 µM
TGI [50]: > 100 µM
GI50 [51]: 1.72 µM
TGI [51]: 3.44 µM
GI50 [52]: 1.78 µM
TGI [52]: > 100 µM
GI50 [53]: 2.99 µM
TGI [53]: > 100 µM
GI50 [54]: 2.17 µM
TGI [54]: > 100 µM
